# Test results reported in patent publication US20210300936A1, “PYRAZOLOTRIAZOLOPYRIMIDINE DERIVATIVES AS A2A RECEPTOR ANTAGONIST” (BEIGENE, LTD., priority 2018, published 2021).
# Biological target: human A2A receptor (A2AR) (Homo sapiens, UniProt P29274)
# Experiment: Luciferase reporter assay (HEK293-A2AR-luc2p/CRE/Hygro cells, 3 nM CGS21680)
# Assay type: cell-based
# Details: 3 nM CGS21680, 5 h incubation
# Method in brief: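 HEK293 cells stably expressing A2AR with a CRE-luc2P reporter were seeded in 1% FBS with 1 U/mL adenosine deaminase. After 18 h, cells got 3 nM CGS21680 plus antagonist at 0.1–10000 nM for 5 h, followed by a luciferase readout. IC50 is relative to the 3 nM CGS21680 signal, set as 100%.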
# Sequence of human A2A receptor (A2AR) (P29274 whole entry): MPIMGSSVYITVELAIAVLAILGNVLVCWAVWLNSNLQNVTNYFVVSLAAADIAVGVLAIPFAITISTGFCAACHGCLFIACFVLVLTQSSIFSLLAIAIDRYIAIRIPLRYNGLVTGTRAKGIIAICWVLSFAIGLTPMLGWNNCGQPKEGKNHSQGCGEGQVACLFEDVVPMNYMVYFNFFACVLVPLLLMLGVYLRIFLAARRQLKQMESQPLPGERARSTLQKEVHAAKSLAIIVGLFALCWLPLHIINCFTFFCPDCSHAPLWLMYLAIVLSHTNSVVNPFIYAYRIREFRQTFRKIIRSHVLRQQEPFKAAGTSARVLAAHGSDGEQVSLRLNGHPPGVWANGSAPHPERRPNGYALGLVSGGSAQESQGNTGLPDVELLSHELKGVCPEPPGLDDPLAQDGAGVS
row,SMILES,IC50 [nM]
1,"CC(C(=O)N1CCN(c2ccc(OCCO)cc2)CC1)(c1ccccc1)n1ncc2c1nc(N)n1nc(-c3ccco3)nc21 (stereo not shown) [Compound A108, 2-(5-amino-2-(furan-2-yl)-7H-pyrazolo[4,3-e][1,2,4]triazolo[1,5-c]pyrimidin-7-yl)-1-(4-(4-(2-hydroxyethoxy)phenyl)piperazin-1-yl)-2-phenylpropan-1-one]",3.5
2,"CCC(C(=O)N1CCN(c2ccc(OCCOC)cc2)CC1)(c1ccccc1)n1ncc2c1nc(N)n1nc(-c3ccco3)nc21 (stereo not shown) [Compound A84, 2-(5-amino-2-(furan-2-yl)-7H-pyrazolo[4,3-e][1,2,4]triazolo[1,5-c]pyrimidin-7-yl)-1-(4-(4-(2-methoxyethoxy)phenyl)piperazin-1-yl)-2-phenylbutan-1-one]",28.3
3,"COCCOc1ccc(N2CCN(C(=O)C(c3ccc(OC)cc3)n3ncc4c3nc(N)n3nc(-c5ccco5)nc43)CC2)cc1 (stereo not shown) [Compound A29, 2-(5-amino-2-(furan-2-yl)-7H-pyrazolo[4,3-e][1,2,4]triazolo[1,5-c]pyrimidin-7-yl)-1-(4-(4-(2-methoxyethoxy)phenyl)piperazin-1-yl)-2-(4-methoxyphenyl)ethan-1-one]",20.5
4,"CC(C(=O)N1CCN(c2cccc(C(=O)NC3CCCCC3)c2)CC1)(c1ccccc1)n1ncc2c1nc(N)n1nc(-c3ccco3)nc21 (stereo not shown) [Compound A90, 2-(5-amino-2-(furan-2-yl)-7H-pyrazolo[4,3-e][1,2,4]triazolo[1,5-c]pyrimidin-7-yl)-2-phenyl-1-(4-(3-(cyclohexanaminocarbonyl)phenyl)piperazin-1-yl)propan-1-one]",14.1
5,"COCCOc1ccc(N2CCN(C(=O)C(C)(c3ccccc3)n3ncc4c3nc(N)n3nc(-c5ccco5)nc43)CC2)c(OC)c1 (stereo not shown) [Compound A106, 2-(5-amino-2-(furan-2-yl)-7H-pyrazolo[4,3-e][1,2,4]triazolo[1,5-c]pyrimidin-7-yl)-1-(4-(2-methoxy-4-(2-methoxyethoxy)phenyl)piperazin-1-yl)-2-phenylpropan-1-one]",8.5
6,"CNC(=O)c1ccc(N2CCN(C(=O)C(C)(c3ccccc3)n3ncc4c3nc(N)n3nc(-c5ccco5)nc43)CC2)cc1 (stereo not shown) [Compound A92, 4-(4-(2-(5-amino-2-(furan-2-yl)-7H-pyrazolo[4,3-e][1,2,4]triazolo[1,5-c]pyrimidin-7-yl)-2-phenylpropanoyl)piperazin-1-yl)-N-methylbenzamide]",2.7
7,"CC(C(=O)N1CCN(c2ccc(OCCN3CCOCC3)cc2)CC1)(c1ccccc1)n1ncc2c1nc(N)n1nc(-c3ccco3)nc21 (stereo not shown) [Compound A80, 2-(5-amino-2-(furan-2-yl)-7H-pyrazolo[4,3-e][1,2,4]triazolo[1,5-c]pyrimidin-7-yl)-1-(4-(4-(2-morpholinoethoxy)phenyl)piperazin-1-yl)-2-phenylpropan-1-one]",4.3
8,"CCCC(C(=O)N1CCN(c2ccc(OCCOC)c(F)c2F)CC1)n1ncc2c1nc(N)n1nc(-c3ccco3)nc21 (stereo not shown) [Compound A51, 2-(5-amino-2-(furan-2-yl)-7H-pyrazolo[4,3-e][1,2,4]triazolo[1,5-c]pyrimidin-7-yl)-1-(4-(2,3-difluoro-4-(2-methoxyethoxy)phenyl)piperazin-1-yl)pentan-1-one]",4.8
9,"CCCCC(C(=O)N1CCN(c2ccc(OCCOCCOC)cc2)CC1)n1ncc2c1nc(N)n1nc(-c3ccco3)nc21 (stereo not shown) [Compound A11, 2-(5-amino-2-(furan-2-yl)-7H-pyrazolo[4,3-e][1,2,4]triazolo[1,5-c]pyrimidin-7-yl)-1-(4-(4-(2-(2-methoxyethoxy)ethoxy)phenyl)piperazin-1-yl)hexan-1-one]",6.9

# The remaining lines, values ahead:
row,IC50 [nM],SMILES
1,112,"CC(C(=O)N1CCc2cc(F)ccc2C1)(c1ccccc1)n1ncc2c1nc(N)n1nc(-c3ccco3)nc21 (stereo not shown) [Compound B19, 2-(5-amino-2-(furan-2-yl)-7H-pyrazolo[4,3-e][1,2,4]triazolo[1,5-c]pyrimidin-7-yl)-1-(6-fluoro-3,4-dihydroisoquinolin-2(1H)-yl)-2-phenylpropan-1-one]"
2,20,"CN(C)C(=O)C(C)(c1ccccc1)n1ncc2c1nc(N)n1nc(-c3ccco3)nc21 (stereo not shown) [Compound B20, 2-(5-amino-2-(furan-2-yl)-7H-pyrazolo[4,3-e][1,2,4]triazolo[1,5-c]pyrimidin-7-yl)-N,N-dimethyl-2-phenylpropanamide]"
3,14,CC(C(=O)N1CCC2(CC1)COC2)(c1ccccc1)n1ncc2c1nc(N)n1nc(-c3ccco3)nc21 (stereo not shown) [Compound B34]
4,118,"CCCCC(C(=O)N1CCN(c2ccc(OCCOCCOC)cc2)CC1)n1cc2c(nc(N)n3nc(-c4ccco4)nc23)n1 (stereo not shown) [Compound C11, 2-(5-amino-2-(furan-2-yl)-8H-pyrazolo[4,3-e][1,2,4]triazolo[1,5-c]pyrimidin-8-yl)-1-(4-(4-(2-(2-methoxyethoxy)ethoxy)phenyl)piperazin-1-yl)hexan-1-one]"
5,2.5,"Nc1nc2c(cnn2C(C(=O)N2CCc3c(F)cccc3C2)c2ccccc2)c2nc(-c3ccco3)nn12 (stereo not shown) [Compound B12, 2-(5-amino-2-(furan-2-yl)-7H-pyrazolo[4,3-e][1,2,4]triazolo[1,5-c]pyrimidin-7-yl)-1-(5-fluoro-3,4-dihydroisoquinolin-2(1H)-yl)-2-phenylethan-1-one]"
6,140,"CCC(C(=O)N1CCN(c2ccc(OCCOC)cc2)CC1)n1cc2c(nc(N)n3nc(-c4ccco4)nc23)n1 (stereo not shown) [Compound C4, 2-(5-amino-2-(furan-2-yl)-8H-pyrazolo[4,3-e][1,2,4]triazolo[1,5-c]pyrimidin-8-yl)-1-(4-(4-(2-methoxyethoxy)phenyl)piperazin-1-yl)butan-1-one]"
7,0.5,"Nc1nc2c(cnn2C(C(=O)N2CCc3cc(F)ccc3C2)c2ccccc2)c2nc(-c3ccco3)nn12 (single isomer, unassigned) [Compound B7b]"
8,21.7,"COCCOc1ccc(N2CCN(C(=O)C(C)(c3ccccc3)n3cc4c(nc(N)n5nc(-c6ccco6)nc45)n3)CC2)cc1 (stereo not shown) [Compound C25, 2-(5-amino-2-(furan-2-yl)-8H-pyrazolo[4,3-e][1,2,4]triazolo[1,5-c]pyrimidin-8-yl)-1-(4-(4-(2-methoxyethoxy)phenyl)piperazin-1-yl)-2-phenylpropan-1-one]"
9,0.8,"Nc1nc2c(cnn2C(C(=O)N2CCc3cccc(F)c3C2)c2ccccc2)c2nc(-c3ccco3)nn12 (stereo not shown) [Compound B10, 2-(5-amino-2-(furan-2-yl)-7H-pyrazolo[4,3-e][1,2,4]triazolo[1,5-c]pyrimidin-7-yl)-1-(8-fluoro-3,4-dihydroisoquinolin-2(1H)-yl)-2-phenylethan-1-one]"
10,15.2,"CN(C)C(=O)C(c1ccccc1)n1ncc2c1nc(N)n1nc(-c3ccco3)nc21 (stereo not shown) [Compound B1, 2-(5-amino-2-(furan-2-yl)-7H-pyrazolo[4,3-e][1,2,4]triazolo[1,5-c]pyrimidin-7-yl)-N,N-dimethyl-2-phenylacetamide]"
